Reference: ChEMBL document CHEMBL3399970, “Synthesis of novel pleuromutilin derivatives. Part 1: preliminary studies of antituberculosis activity” (2015)
Converted amounts (≈) assume the structure as drawn.

Columns and labels:
[1] = test system: Mycobacterium tuberculosis; assay: Antimycobacterial activity against Mycobacterium tuberculosis H37Rv assessed as inhibition at 20 uM; assay type: functional
[2] = test system: Mycobacterium tuberculosis; assay: Antimycobacterial activity against Mycobacterium tuberculosis H37Rv assessed as complete inhibition of proliferation; assay type: functional

Structure (SMILES) | inhibition at 20 µM [1] [%] | MIC [2] [µM]
C=C[C@]1(C)C[C@@H](OC(=O)CN(Cc2ccccc2)Cc2ccc(Oc3ccccc3)cc2)[C@]2(C)[C@H](C)CC[C@]3(CCC(=O)[C@H]32)[C@@H](C)[C@@H]1O | 101 | –
C=C[C@]1(C)C[C@@H](OC(=O)CN(CC)Cc2ccc(N(CC)CC)cc2)[C@]2(C)[C@H](C)CC[C@]3(CCC(=O)[C@H]32)[C@@H](C)[C@@H]1O | 99 | 7.2 (≈ 4.08 µg/mL)
C=C[C@]1(C)C[C@@H](OC(=O)CN(CC)Cc2ccccc2)[C@]2(C)[C@H](C)CC[C@]3(CCC(=O)[C@H]32)[C@@H](C)[C@@H]1O | 100 | –
C=C[C@]1(C)C[C@@H](OC(=O)CN(Cc2ccc(Oc3ccccc3)cc2)C2CCCCC2)[C@]2(C)[C@H](C)CC[C@]3(CCC(=O)[C@H]32)[C@@H](C)[C@@H]1O | 88 | –
C=C[C@]1(C)C[C@@H](OC(=O)CN(CC)Cc2ccc(Oc3ccccc3)cc2)[C@]2(C)[C@H](C)CC[C@]3(CCC(=O)[C@H]32)[C@@H](C)[C@@H]1O | 100 | –
C=C[C@]1(C)C[C@@H](OC(=O)CN(N2CCCCC2)S(=O)(=O)c2ccc(N)cc2)[C@]2(C)[C@H](C)CC[C@]3(CCC(=O)[C@H]32)[C@@H](C)[C@@H]1O | 60 | –
C=C[C@]1(C)C[C@@H](OC(=O)CN(CC)Cc2cccc(Cl)c2)[C@]2(C)[C@H](C)CC[C@]3(CCC(=O)[C@H]32)[C@@H](C)[C@@H]1O | 99 | –
C=C[C@]1(C)C[C@@H](OC(=O)CN(CC)Cc2cccc(C)c2)[C@]2(C)[C@H](C)CC[C@]3(CCC(=O)[C@H]32)[C@@H](C)[C@@H]1O | 16 | –
